Columns and labels:
[1] = test system: human breast cancer cells MCF7; assay: In vitro anti-tumor activity, MTT method; assay type: cell-based; details: MCF-7, MTT, 96-hour treatment
Description: (§1) The inhibitory effects of the compounds against human non-small cell lung cancer cell lines A549, NCI-H1650, human small cell lung cancer cell lines H446, human prostate cancer cells DU145, PC-3, LNCAP, human colon cancer cells lines HCT116, human breast cancer cells MDA-MB-231, and MCF7 tumor cell lines were determined using the MTT method.
(§2) The method was as follows. The cells in the exponential growth phase were collected to count living cells. The concentration of the cell suspension was adjusted using the corresponding medium of each group of cells. The cell suspension was added to the 96-well culture plate at 100 μL per cell, and the plate was placed in a 5% CO2 incubator at 37° C. and incubated for 24 h. Each test compound was dissolved in DMSO to prepare a stock solution with a corresponding concentration. Then, each stock solution was diluted 500-fold with the medium to prepare 4 replicate wells. 100 μL of the corresponding 500-fold solution was added to each well per cell line, with the final DMSO concentration of 0.1%. […] The half-maximal (relative to the DMSO control group) inhibition rate was calculated using the software GraphPad Prism 4.

[2] = test system: human prostate cancer cells DU145; assay: In vitro anti-tumor activity, MTT method; assay type: cell-based; details: 96-hour treatment
Description: as §1, §2

[3] = test system: human non-small cell lung cancer cell line A549; assay: In vitro anti-tumor activity, MTT method; assay type: cell-based; details: 96-hour treatment
Description: as §1, §2

[4] = test system: human prostate cancer cells PC-3; assay: In vitro anti-tumor activity, MTT method; assay type: cell-based; details: PC-3, MTT, 96-hour treatment
Description: as §1, §2

HDAC = HDAC inhibitory activity assay (FRET); assay type: biochemical; details: for Inhibition rate: test concentration 100 nM, relative to DMSO control; for IC50: HDAC, FRET, read-out: Half-maximal inhibitory concentration (IC50 ± SD)
Description: The HDAC inhibitory activity of the synthesized compounds was determined by fluorescence resonance energy transfer (FRET), and then compared with that of the positive control to screen out compounds with better activity. HDAC was obtained by purification or purchased directly.
The method was as follows.
An enzyme was added to reaction wells, a reaction buffer was added to control wells, a sample dissolved in DMSO was added to the reaction wells, and the wells were incubated using a contactless nanoflow sonic pipetting system (Ech-550; nanoflow). A fluorescent substrate was added to each reaction well and then rotated and shaken. The wells were incubated for 1-2 h at 30° C. under a sealed condition. A TMP26-containing chromogenic agent was added to terminate the reaction and produce fluorescence. The fluorescence intensity was detected using En Vision multi-label microplate detector (Perkin Elmer) (excitation light: 490 nm, emitted light: 520 nm). After the stabilization of color development, the endpoint value was read. The percentage (relative to the DMSO control group) inhibition rate was calculated using the software GraphPad Prism 4.

| Structure (SMILES) | IC50 ([1]; Homo sapiens, MCF7, 96 h) [µM] | IC50 ([2]; Homo sapiens, DU-145, 96 h) [µM] | IC50 ([3]; Homo sapiens, A549, 96 h) [µM] | IC50 ([4]; Homo sapiens, 96 h) [µM] | IC50 [1] [µM] | IC50 [2] [µM] | IC50 [3] [µM] | IC50 [4] [µM] | Inhibition rate (HDAC) | Inhibition rate (HDAC; 0.1 µM) | IC50 (HDAC) [µM] |
| --- | --- | --- | --- | --- | --- | --- | --- | --- | --- | --- | --- |
| O=C(CCCN1C(=O)C/C(=C\c2ccccc2)C1=O)NO [Example I-1, (E)-4-(3-benzal-2,5-dioxopyrrolidinyl)-N-hydroxybutyramide] | > 20 | > 20 | > 20 | > 20 |  |  |  |  |  |  |  |
| O=C(CCCCN1C(=O)C/C(=C\c2ccccc2)C1=O)NO [Example I-2] | > 20 | > 20 | > 20 | > 20 |  |  |  |  |  |  |  |
| O=C(CCCCCN1C(=O)C/C(=C\c2ccccc2)C1=O)NO [Example I-3] | 2.58 ± 0.07 | 1.49 ± 0.21 | 3.51 ± 0.15 | 4.27 ± 0.25 |  |  |  |  |  |  |  |
| O=C(CCCCCCCN1C(=O)C/C(=C\c2ccccc2)C1=O)NO [Example I-5] | 3.89 ± 0.36 | 1.56 ± 0.18 | 5.88 ± 0.58 | 5.01 ± 0.38 |  |  |  |  |  |  |  |
| Nc1cc(F)ccc1NC(=O)CCCN1C(=O)C/C(=C\c2ccccc2)C1=O [Example I-6, (E)-N-(2-amino-4-fluorophenyl)-4-(3-benzal-2,5-diketopyrrolidinyl) butyramide] |  |  |  |  | > 20 | > 20 | > 20 | > 20 |  |  |  |
| Nc1cc(F)ccc1NC(=O)CCCCN1C(=O)C/C(=C\c2ccccc2)C1=O [Example I-7, (E)-N-(2-amino-4-fluorophenyl)-5-(3-benzal-2,5-diketopyrrolidinyl)pentanamide] | > 20 | > 20 | > 20 | > 20 |  |  |  |  | 0% |  |  |
| Nc1cc(F)ccc1NC(=O)CCCCCCN1C(=O)C/C(=C\c2ccccc2)C1=O [Example I-9, (E)-N-(2-amino-4-fluorophenyl)-7-(3-benzal-2,5-diketopyrrolidinyl)heptamide] | > 20 | > 20 | > 20 | > 20 |  |  |  |  |  |  |  |
| O=C(CCCN1C(=O)C/C(=C\c2ccccc2)C1=O)N[C@H]1CCCC[C@@H]1O [Example I-10, 4-(3-((E)-benzal)-2,5-diketopyrrolidinyl)-N-((1S,2S)-2-hydroxycyclohexyl) butyramide] | > 20 | > 20 | > 20 | > 20 |  |  |  |  |  |  |  |
| O=C(CCCCN1C(=O)C/C(=C\c2ccccc2)C1=O)N[C@H]1CCCC[C@@H]1O [Example I-11, 5-(3-((E)-benzal)-2,5-diketopyrrolidinyl)-N-((1S,2S)-2-hydroxycyclohexyl)pentanamide] | > 20 | > 20 | > 20 | > 20 |  |  |  |  |  |  |  |
| O=C(CCCCCN1C(=O)C/C(=C\c2ccccc2)C1=O)N[C@H]1CCCC[C@@H]1O [Example I-12, 6-(3-((E)-benzal)-2,5-diketopyrrolidinyl)-N-((1S,2S)-2-hydroxycyclohexyl)hexanamide] | > 20 | > 20 | > 20 | > 20 |  |  |  |  | 0% |  |  |
| O=C(CCCCCCN1C(=O)C/C(=C\c2ccccc2)C1=O)N[C@H]1CCCC[C@@H]1O [Example I-13, 7-(3-((E)-benzal)-2,5-diketopyrrolidinyl)-N-((1S,2S)-2-hydroxycyclohexyl)heptamide] | > 20 | > 20 | > 20 | > 20 |  |  |  |  | 0% |  |  |
| CC(C)c1ccc(/C=C2\CC(=O)N(CCCCCCC(=O)NO)C2=O)cc1 [Example I-15, (E)-7-(3-(4-isopropylbenzal)-2,5-diketopyrrolidinyl)-N-hydroxyheptamide] | 1.66 ± 0.14 | 1.35 ± 0.27 | 3.68 ± 0.5 | 1.82 ± 0.16 |  |  |  |  | 81.4% ± 0.5% |  |  |
| CN(C)c1ccc(/C=C2\CC(=O)N(CCCCCCC(=O)NO)C2=O)cc1 [Example I-16, (E)-7-(3-(4-dimethylaminobenzal)-2,5-diketopyrrolidinyl)-N-hydroxyheptamide] | 1.16 ± 0.12 | 0.92 ± 0.03 | 2.24 ± 0.08 | 1.75 ± 0.12 |  |  |  |  | 93.3% ± 1.0% |  |  |
| O=C(CCCCCCN1C(=O)C/C(=C\c2ccc(C(F)(F)F)cc2)C1=O)NO [Example I-17, (E)-7-(3-(4-trifluoromethylbenzal)-2,5-diketopyrrolidinyl)-N-hydroxyheptamide] | 1.68 ± 0.09 | 1.22 ± 0.18 | 3.37 ± 0.43 | 1.83 ± 0.05 |  |  |  |  | 76.2% ± 0.7% |  |  |
| Cc1ccc(/C=C2\CC(=O)N(CCCCCCC(=O)NO)C2=O)cc1 [Example I-18, (E)-7-(3-(4-methylbenzal)-2,5-diketopyrrolidinyl)-N-hydroxyheptamide] |  |  | 1.88 ± 0.17 |  | 0.46 ± 0.04 | 0.31 ± 0.05 |  | 2.2 ± 0.08 |  | 85.9% ± 0.9% |  |
| N#Cc1ccccc1/C=C1\CC(=O)N(CCCCCCC(=O)NO)C1=O [Example I-20, (E)-7-(3-(2-cyanobenzal)-2,5-diketopyrrolidinyl)-N-hydroxyheptamide] | 0.82 ± 0.05 | 0.74 ± 0.1 | 2.82 ± 0.39 | 0.87 ± 0.1 |  |  |  |  |  |  | 0.0401 ± 0.00121 |
| O=C(CCCCCCN1C(=O)C/C(=C\c2ccccn2)C1=O)NO [Example I-21, (E)-7-(3-(2-methylenepyridin)-2,5-diketopyrrolidinyl)-N-hydroxyheptamide] | 1.54 ± 0.09 | 0.67 ± 0.09 | 2.25 ± 0.25 | 0.99 ± 0.04 |  |  |  |  | 88.3% ± 1.1% |  |  |
| O=C(CCCCCCN1C(=O)C/C(=C\c2cccs2)C1=O)NO [Example I-23, (E)-7-(3-(2-methylenethienyl)-2,5-diketopyrrolidinyl)-N-hydroxyheptamide] | 0.97 ± 0.05 | 0.54 ± 0.1 | 3.44 ± 0.15 | 0.91 ± 0.07 |  |  |  |  | 84.9% ± 0.5% |  |  |
| O=C(CCCCCCN1C(=O)C/C(=C\c2ccc(Cl)cc2)C1=O)NO [Example I-26, (E)-7-(3-(4-chlorobenzal)-2,5-diketopyrrolidinyl)-N-hydroxyheptamide] | 0.69 ± 0.09 | 0.57 ± 0.04 | 2.2 ± 0.26 | 0.89 ± 0.12 |  |  |  |  | 86.6% ± 0.4% |  |  |
| O=C(CCCCCCN1C(=O)C/C(=C\c2cccc(Br)c2)C1=O)NO [Example I-27, (E)-7-(3-(3-bromobenzal)-2,5-diketopyrrolidinyl)-N-hydroxyheptamide] | 0.83 ± 0.05 | 0.65 ± 0.09 | 2.81 ± 0.1 | 1.06 ± 0.13 |  |  |  |  | 90.9% ± 1.2% |  |  |
| O=C(CCCCCCN1C(=O)C/C(=C\c2cccc(F)c2)C1=O)NO [Example I-28, (E)-7-(3-(3-fluorobenzal)-2,5-diketopyrrolidinyl)-N-hydroxyheptamide] | 0.92 ± 0.05 | 0.66 ± 0.12 | 3.02 ± 0.51 | 0.89 ± 0.05 |  |  |  |  | 85.2% ± 1.6% |  |  |
| O=C(CCCCCCN1C(=O)C/C(=C\c2cccc(I)c2)C1=O)NO [Example I-29, (E)-7-(3-(3-iodobenzal)-2,5-diketopyrrolidinyl)-N-hydroxyheptamide] | 1.38 ± 0.12 | 0.91 ± 0.07 | 5.09 ± 0.23 | 1.47 ± 0.15 |  |  |  |  | 91.3% ± 0.7% |  |  |
| O=C(CCCCCCN1C(=O)C/C(=C\c2ccc(Cl)c(Cl)c2)C1=O)NO [Example I-30, (E)-7-(3-(3,4-dichlorobenzal)-2,5-diketopyrrolidinyl)-N-hydroxyheptamide] | 0.9 ± 0.02 | 0.44 ± 0.08 | 2.34 ± 0.1 | 1.69 ± 0.08 |  |  |  |  | 82.1% ± 0.1% |  |  |
| COc1cccc(/C=C2\CC(=O)N(CCCCCCC(=O)NO)C2=O)c1 [Example I-32, (E)-7-(3-(3-methoxybenzal)-2,5-diketopyrrolidinyl)-N-hydroxyheptamide] | 0.88 ± 0.09 | 0.4 ± 0.04 | 1.24 ± 0.21 | 0.92 ± 0.03 |  |  |  |  |  |  | 0.0185 ± 0.00019 |
| COc1ccc(/C=C2\CC(=O)N(CCCCCCC(=O)NO)C2=O)cc1 [Example I-33, (E)-7-(3-(4-methoxybenzal)-2,5-diketopyrrolidinyl)-N-hydroxyheptamide] | 1.02 ± 0.11 | 0.5 ± 0.1 | 1.52 ± 0.14 | 0.89 ± 0.1 |  |  |  |  |  |  | 0.013 ± 2e-05 |
| COc1ccc(/C=C2\CC(=O)N(CCCCCCC(=O)NO)C2=O)cc1OC [Example I-34, (E)-7-(3-(3,4-dimethoxybenzal)-2,5-diketopyrrolidinyl)-N-hydroxyheptamide] | 0.82 ± 0.09 | 0.45 ± 0.12 | 1.23 ± 0.17 | 0.88 ± 0.1 |  |  |  |  | 85.3% ± 7.2% |  |  |
